According to patent publication US11384113B2, “Cobalamin derivatives and their use for the treatment of diseases caused by lack of vitamin B12 supply” (Albert-Ludwigs-Universitaet Freiburg, priority 2017, dated 2022):
Where a chain is given by its changes, count along the chain named. Where two headings read alike, the source gives them in different places.

Assays:
[1] = base-on to base-off equilibrium; cited from earlier work
[2] = cited from earlier work
[3] = biological target: T1, human recombinant CblC wild type (Homo sapiens, UniProt Q9Y4U1); assay type: biochemical; settings: for Product under ambient conditions, Wild type CblC: dealkylation, 5 mM GSH; for Half-life of beta-axial ligand removal, Wild type CblC: human, pH 7.6
T1 sequence (Q9Y4U1 1-282): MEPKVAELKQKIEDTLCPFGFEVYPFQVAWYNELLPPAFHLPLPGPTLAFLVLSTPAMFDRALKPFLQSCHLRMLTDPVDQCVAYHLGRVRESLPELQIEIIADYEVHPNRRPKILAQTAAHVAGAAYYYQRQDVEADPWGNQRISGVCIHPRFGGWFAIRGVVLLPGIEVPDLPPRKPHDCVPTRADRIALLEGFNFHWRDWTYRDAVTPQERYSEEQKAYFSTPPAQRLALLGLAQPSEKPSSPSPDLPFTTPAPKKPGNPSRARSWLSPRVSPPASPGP
Method: (§1) The ability of the newly synthesized Cbl derivatives to serve as substrates for CblC was examined (FIG. 12). CblC activity was measured by UV-visible spectroscopy according to published procedures. Analysis of reaction products was performed by mass spectrometry. We measured dealkylation and de-thiolation of Co—C and Co—S bonded Cbl derivatives, respectively, by wild type and mutant CblC proteins to determine whether these reactions could be supported in patients harboring an abnormal isoform of CblC with low or no enzymatic activity.
The enzymatic activity of CblC in the presence of CyaCbl and MPGCbl as substrates was evaluated under the same experimental conditions utilized to examine dealkylation of MeCbl and AdoCbl. […] The reaction was complete in less than 10 seconds, which is the time it takes to record the first spectrum after mixing of CblC-bound to CyaCbl or MPGCbl with 5 mM GSH (FIG. 12).
(§2) First, the ability of novel cobalamins described herein was tested to act as substrate for wild type CblC and to restore the lost activity of pathogenic variants, such as mutant Arg161Gly, that leads to early-onset form of the cblC disease.

[4] = biological target: T2, human recombinant CblC pathogenic mutant Arg161Gly (Homo sapiens, UniProt Q9Y4U1, R161G); assay type: biochemical; settings: for Product under ambient conditions, Mutant Arg161Gly: dealkylation, 5 mM GSH; for Half-life of beta-axial ligand removal, Mutant Arg161Gly: human, pH 7.6
T2 sequence (Q9Y4U1 1-282 R161G): T1 sequence (Q9Y4U1 1-282) with R161G
Method: as §1, §2

[5] = system: fibroblasts isolated from patients with cblC disease; experiment: MMA in conditioned medium of cblC patient fibroblasts; assay type: cell-based, human
Text: (§3) Cultured cells from control (healthy neonatal subjects) or cblC fibroblasts were supplemented without exogenous Cbl (negative control), with commercial CNCbl (current therapy control) or with the newly synthesized cobalamins (test group). The ability of these compounds to support intracellular Cbl metabolism in the absence of CblC was examined by monitoring disease biomarker metabolites Hcy and MMA levels in the conditioned medium.
(§4) The cellular response to treatment with new derivatives CyaCbl and MPGCbl in comparison with current therapeutic form CNCbl was measured. The ability of the new cobalamin derivatives CyaCbl and MPGCbl to achieve metabolic control, i.e. reduction of for example MMA production by cblC fibroblasts in culture, was examined as described in previously published experimental protocols. FIG. 13 provides a comparison of the effect of CNCbl (0.001 mM) versus the same dose of CyaCbl or MPGCbl given to cultured fibroblasts from healthy subjects (HFF, NHDF, PCS, Wiesel, Control) or from cblC patients (WG1801, WG2176, WG3354, GM10011, GM02345B, GM02452C).
(§5) Additional examination of the effect of thiolatocobalamins CyaCbl and MPGCbl and sulfur-containing alkylcobalamin Me-S-MeCbl with respect to structural analogues that are NOT available for therapy was also carried out, for comparative purposes. The results of cellular response (healthy controls and cblC patient fibroblasts) to cobalamin treatment, as reflected by MMA levels is provided in Table 6.

[6] = system: fibroblasts from healthy subjects; experiment: MMA in conditioned medium of control fibroblasts; assay type: cell-based, human
Text: as §3, §4, §5

Compound | pKa of base on/base off [1] | Product under ambient conditions, Wild type CblC [3] | Half-life of beta-axial ligand removal, Wild type CblC [3] | Product under ambient conditions, Mutant Arg161Gly [4] | Half-life of beta-axial ligand removal, Mutant Arg161Gly [4] | other results
C/C1=C2/[N-][C@H]([C@H](CC(N)=O)[C@@]2(C)CCC(=O)NC[C@@H](C)OP(=O)([O-])O[C@H]2[C@@H](O)[C@@H](n3cnc4cc(C)c(C)cc43)O[C@@H]2CO)[C@]2(C)N=C(/C(C)=C3N=C(/C=C4N=C1[C@@H](CCC(N)=O)C\4(C)C)[C@@H](CCC(N)=O)[C@]\3(C)CC(N)=O)[C@@H](CCC(N)=O)[C@]2(C)CC(N)=O.[CH2-][C@H]1O[C@@H](n2cnc3c(N)ncnc32)[C@H](O)[C@@H]1O.[Co] [AdoCbl, Adenosylcobalamin] | 3.50 | – | – | – | – | Redox potential [V] relative to NHE ([2]; electrochemical, DMF/methanol): −1.04 V
CC1=C2N=C(C=C3N=C(C(C)=C4[N-]C(C(CC(N)=O)C4(C)CCC(=O)NCC(C)OP(=O)([O-])OC4C(CO)OC(n5cnc6cc(C)c(C)cc65)C4O)C4(C)N=C1C(CCC(N)=O)C4(C)CC(N)=O)C(CCC(N)=O)C3(C)C)C(CCC(N)=O)C2(C)CC(N)=O.CCC[CH2][Co+2] (stereo not shown) [BuCbl, butylcobalamin, reference compound] | – | H2OCbl | 1155 min | No reaction | 0 min | –
C/C1=C2/[N-][C@H]([C@H](CC(N)=O)[C@@]2(C)CCC(=O)NC[C@@H](C)OP(=O)([O-])O[C@H]2[C@@H](O)[C@@H](n3cnc4cc(C)c(C)cc43)O[C@@H]2CO)[C@]2(C)N=C(/C(C)=C3N=C(/C=C4N=C1[C@@H](CCC(N)=O)C\4(C)C)[C@@H](CCC(N)=O)[C@]\3(C)CC(N)=O)[C@@H](CCC(N)=O)[C@]2(C)CC(N)=O.[Co].[OH3+] [H2O, Aquacobalamin] | −2.40 | – | – | – | – | Redox potential [V] relative to NHE ([2]; 22° C.): 0.20 V
CC1=C2N=C(C=C3N=C(C(C)=C4[N-]C(C(CC(N)=O)C4(C)CCC(=O)NCC(C)OP(=O)([O-])OC4C(CO)OC(n5cnc6cc(C)c(C)cc65)C4O)C4(C)N=C1C(CCC(N)=O)C4(C)CC(N)=O)C(CCC(N)=O)C3(C)C)C(CCC(N)=O)C2(C)CC(N)=O.CSC[CH2][Co+2] (stereo not shown) [Me—S—EtCbl] | – | H2OCbl/Cob(II)alamin | 7.5 min | Cob(II)alamin | 11.5 min | –
CC1=C2N=C(C=C3N=C(C(C)=C4[N-]C(C(CC(N)=O)C4(C)CCC(=O)NCC(C)OP(=O)([O-])OC4C(CO)OC(n5cnc6cc(C)c(C)cc65)C4O)C4(C)N=C1C(CCC(N)=O)C4(C)CC(N)=O)C(CCC(N)=O)C3(C)C)C(CCC(N)=O)C2(C)CC(N)=O.CS[CH2][Co+2] (stereo not shown) [Me—S—MeCbl] | – | H2OCbl/Cob(II)alamin | 8.5 min | Cob(II)alamin | 12 min | MMA in conditioned medium ([5]; GM02345B cblC fibroblasts, after 7 days): 0.150 μmol/mg protein; MMA in conditioned medium ([5]; GM02452C cblC fibroblasts, after 7 days): 0.150 μmol/mg protein; MMA in conditioned medium ([5]; GM10011 cblC fibroblasts, after 7 days): 0.041 μmol/mg protein; MMA in conditioned medium ([5]; WG1801 cblC fibroblasts, after 7 days): 0.254 μmol/mg protein; MMA in conditioned medium ([5]; WG2176 cblC fibroblasts, after 7 days): 0.083 μmol/mg protein; MMA in conditioned medium ([5]; WG3354 cblC fibroblasts, after 7 days): 0.148 μmol/mg protein; MMA in conditioned medium ([5]; cblC patients (group value), after 7 days): 0.138 μmol/mg protein; MMA in conditioned medium ([5]; cblC patients, after 7 days wash-off period without supplemental cobalamin): 0.177 μmol/mg protein; MMA in conditioned medium ([6]; Controls (group value), after 7 days): 0.122 μmol/mg protein; MMA in conditioned medium ([6]; Controls, after 7 days wash-off period without supplemental cobalamin): 0.145 μmol/mg protein; MMA in conditioned medium ([6]; HFF control fibroblasts, after 7 days): 0.132 μmol/mg protein; MMA in conditioned medium ([6]; NHDF control fibroblasts, after 7 days): 0.103 μmol/mg protein; MMA in conditioned medium ([6]; Wiezel control fibroblasts, after 7 days): 0.132 μmol/mg protein
CC1=C2N=C(C=C3N=C(C(C)=C4[N-]C(C(CC(N)=O)C4(C)CCC(=O)NCC(C)OP(=O)([O-])OC4C(CO)OC(n5cnc6cc(C)c(C)cc65)C4O)C4(C)N=C1C(CCC(N)=O)C4(C)CC(N)=O)C(CCC(N)=O)C3(C)C)C(CCC(N)=O)C2(C)CC(N)=O.O=[N+]([O-])[Co+2] (stereo not shown) [NO2] | −0.15 | – | – | – | – | –
CC1=C2N=C(C=C3N=C(C(C)=C4[N-]C(C(CC(N)=O)C4(C)CCC(=O)NCC(C)OP(=O)([O-])OC4C(CO)OC(n5cnc6cc(C)c(C)cc65)C4O)C4(C)N=C1C(CCC(N)=O)C4(C)CC(N)=O)C(CCC(N)=O)C3(C)C)C(CCC(N)=O)C2(C)CC(N)=O.CC[CH2][Co+2] (stereo not shown) [PrCbl, propylcobalamin, reference compound] | – | H2OCbl | 318 min | No reaction | 0 min | –
CC1=C2N=C(C=C3N=C(C(C)=C4[N-]C(C(CC(N)=O)C4(C)CCC(=O)NCC(C)OP(=O)([O-])OC4C(CO)OC(n5cnc6cc(C)c(C)cc65)C4O)C4(C)N=C1C(CCC(N)=O)C4(C)CC(N)=O)C(CCC(N)=O)C3(C)C)C(CCC(N)=O)C2(C)CC(N)=O.N#C[S][Co+2] (stereo not shown) [SCN^−] | 3.40 | – | – | – | – | –
cyanocobalamin [CNCbl] | 0.10 | – | – | – | – | Redox potential [V] relative to NHE ([2]; electrochemical, DMSO/propanol): −0.76 V
